From patent publication US20150105252A1, “SUBSTITUTED PYRAZOLES AS HERBICIDES” (E I DU PONT DE NEMOURS AND COMPANY, priority 2013, published 2015)

Columns and labels:
[1] = system: ducksalad; assay: Test B flood; type: in vivo, Heteranthera limosa; details: 250 g ai/ha, visual rating on 0 to 100 scale (0 no effect, 100 complete control), 13 to 15 days
Summary of the method: (§1)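 Visual ratings (0 = no effect, 100 = complete control) versus untreated controls were taken 13–15 days after treatment of greenhouse plants. Treatment was added to paddy water held at 3 cm depth on 2-leaf-stage seedlings.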

[2] = system: rice; assay: Test B flood; type: in vivo, Oryza sativa; details: 250 g ai/ha, visual rating on 0 to 100 scale (0 no effect, 100 complete control), 13 to 15 days
Summary of the method: as §1

[3] = system: pigweed; assay: Test A postemergence; type: in vivo, Amaranthus retroflexus; details: Postemergence
Summary of the method: (§2)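 Both timings tested concurrently in loam/sand soil: preemergence by directed soil spray, postemergence on plants of 2–10 cm at the one- to two-leaf stage. Greenhouse holding period was approximately 10 days before visual injury assessment (0–100, 0 = no effect).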

[4] = system: ragweed; assay: Test C preemergence; type: in vivo, Ambrosia elation
Summary of the method: (§3)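 Pre- and postemergence greenhouse screen; vehicle was a non-phytotoxic solvent mix with surfactant. Preemergence: treatment applied right after sowing into loam and sand. Postemergence: treated at 1–4 leaves. Visual rating at 13–15 days, 100 = complete control.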

[5] = system: waterhemp; assay: Test C preemergence; type: in vivo, Amaranthus rudis
Summary of the method: as §3

[6] = system: foxtail, giant; assay: Test C preemergence; type: in vivo, Setaria faberii
Summary of the method: as §3

[7] = system: wheat; assay: Test A postemergence; type: in vivo, Triticum aestivum; details: Postemergence
Summary of the method: as §2

[8] = system: pigweed; assay: Test A preemergence; type: in vivo, Amaranthus retroflexus; details: preemergence; for Pigweed plant response rating (0 to 100 scale): 125 g ai/ha, visual injury approx. 10 days after treatment; for Pigweed plant response rating: 500 g ai/ha, visual injury after approx. 10 days, 0 to 100 scale (0 no effect, 100 complete control)
Summary of the method: as §2

[9] = system: crabgrass, large; assay: Test A preemergence; type: in vivo, Digitaria sanguinalis; details: preemergence; for Crabgrass, Large plant response rating (0 to 100 scale): 125 g ai/ha, visual injury approx. 10 days after treatment; for Crabgrass, Large plant response rating: 500 g ai/ha, visual injury after approx. 10 days, 0 to 100 scale (0 no effect, 100 complete control)
Summary of the method: as §2

[10] = system: corn; assay: Test A postemergence; type: in vivo, Zea mays
Summary of the method: as §2

[11] = system: corn; assay: Test C preemergence; type: in vivo, Zea mays
Summary of the method: as §3

[12] = system: morningglory; assay: Test A postemergence; type: in vivo, Ipomoea spp.; details: Postemergence
Summary of the method: as §2

[13] = system: blackgrass; assay: Test C preemergence; type: in vivo, Alopecurus myosuroides; details: preemergence; for Plant response rating, Blackgrass: 125 g ai/ha, scale 0 to 100, 0 = no effect, 100 = complete control
Summary of the method: as §3

[14] = system: morningglory; assay: Test A preemergence; type: in vivo, Ipomoea spp.; details: preemergence; for Morningglory plant response rating (0 to 100 scale): 125 g ai/ha, visual injury approx. 10 days after treatment; for Morningglory plant response rating: 500 g ai/ha, visual injury after approx. 10 days, 0 to 100 scale (0 no effect, 100 complete control)
Summary of the method: as §2

[15] = system: ryegrass, Italian; assay: Test C preemergence; type: in vivo, Lolium multiflorum
Summary of the method: as §3

[16] = 125 g ai/ha, 0 to 100 scale, 0 no effect, 100 complete control
[17] = 500 g ai/ha, 0 to 100 scale (0 no effect, 100 complete control)
[18] = preemergence, 31 g ai/ha, visual rating, scale 0 to 100 (0 no effect, 100 complete control), 13 to 15 days
[19] = preemergence, 62 g ai/ha, scale 0 to 100 (0 no effect, 100 complete control), 13 to 15 days
[20] = preemergence, 125 g ai/ha, 13 to 15 days, scale 0 to 100, 0 = no effect, 100 = complete control
[21] = preemergence, 250 g ai/ha, scale 0 to 100, 0 is no effect, 100 is complete control
[22] = Postemergence, 500 g ai/ha, 0 to 100 scale (0 no effect, 100 complete control)
[23] = postemergence, 125 g ai/ha, about 10 days, visual rating on 0 to 100 scale (0 no effect, 100 complete control)
[24] = 31 g ai/ha, visual rating, scale 0 to 100 (0 no effect, 100 complete control), 13 to 15 days
[25] = 62 g ai/ha, scale 0 to 100 (0 no effect, 100 complete control), 13 to 15 days
[26] = 250 g ai/ha, scale 0 to 100, 0 is no effect, 100 is complete control
[27] = Preemergence, rate head not shown (block before 16 g ai/ha), scale 0 to 100

Structure (SMILES) | Plant response rating, Ducksalad [1] | Plant response rating, Rice [2] | Pigweed plant response rating [3, 16] | Pigweed plant response rating [3, 17] | Ragweed plant response rating [4, 19] | Plant response rating, Ragweed [4, 20] | Ragweed plant response rating [4, 21] | Waterhemp plant response rating [5, 19] | Plant response rating, Waterhemp [5, 20] | Waterhemp plant response rating [5, 21] | Foxtail, Giant plant response rating [6, 19] | Plant response rating, Foxtail, Giant [6, 20] | Foxtail, Giant plant response rating [6, 21] | Wheat plant response rating [7, 16] | Wheat plant response rating [7, 17] | Pigweed plant response rating (0 to 100 scale) [8] | Crabgrass, Large plant response rating (0 to 100 scale) [9] | Crabgrass, Large plant response rating [9] | Corn plant response rating [10, 22] | Corn plant response rating [11, 19] | further results
CCc1cc(C(=O)NCC2CC2)nn1Cc1ccnc(C(F)(F)F)c1 [Compound 199] | 90 | 45 | 100 | 100 | 85 | 95 | 95 | 100 | 100 | 100 | 100 | 100 | 100 | 70 | 80 | 100 | 100 | 100 | 90 | 65 | Ragweed plant response rating [4, 18]: 30; Waterhemp plant response rating [5, 18]: 98; Foxtail, Giant plant response rating [6, 18]: 100; Pigweed plant response rating [8]: 100; Corn plant response rating [10, 23]: 50; Corn plant response rating [11, 18]: 20; Plant response rating, Corn [11, 20]: 75; Corn plant response rating [11, 21]: 90; Morningglory plant response rating [12, 16]: 90; Morningglory plant response rating [12, 17]: 100; Blackgrass plant response rating [13, 24]: 90; Blackgrass plant response rating [13, 25]: 90; Plant response rating, Blackgrass ([13]; 13 to 15 days): 90; Blackgrass plant response rating [13, 26]: 90; Morningglory plant response rating (0 to 100 scale) [14]: 90; Morningglory plant response rating [14]: 100; Ryegrass, Italian plant response rating [15, 18]: 40; Ryegrass, Italian plant response rating [15, 19]: 85; Plant response rating, Ryegrass, Italian [15, 20]: 90; Ryegrass, Italian plant response rating [15, 21]: 90
CCc1cc(C(=O)NC2CC2)nn1Cc1ccnc(OCC(F)(F)F)c1 [Compound 200] | 80 | 0 | 100 | 100 | 35 | 70 | 85 | 100 | 100 | 100 | 85 | 98 | 100 | 40 | 100 | 100 | 100 | 100 | 100 | 15 | Ragweed plant response rating [4, 18]: 5; Waterhemp plant response rating [5, 18]: 100; Foxtail, Giant plant response rating [6, 18]: 75; Pigweed plant response rating [8]: 100; Corn plant response rating [10, 23]: 80; Corn plant response rating [11, 18]: 0; Plant response rating, Corn [11, 20]: 35; Corn plant response rating [11, 21]: 80; Morningglory plant response rating [12, 16]: 100; Morningglory plant response rating [12, 17]: 100; Blackgrass plant response rating [13, 24]: 50; Blackgrass plant response rating [13, 25]: 80; Plant response rating, Blackgrass ([13]; 13 to 15 days): 90; Blackgrass plant response rating [13, 26]: 90; Morningglory plant response rating (0 to 100 scale) [14]: 40; Morningglory plant response rating [14]: 100; Ryegrass, Italian plant response rating [15, 18]: 0; Ryegrass, Italian plant response rating [15, 19]: 90; Plant response rating, Ryegrass, Italian [15, 20]: 90; Ryegrass, Italian plant response rating [15, 21]: 95
CCc1cc(C(=O)NC2CC2)nn1Cc1cc(C(F)(F)C(F)(F)F)nn1C [Compound 226] | 90 | 30 | 100 | 100 | 100 | 95 | 98 | 100 | 100 | 100 | 90 | 100 | 100 | 60 | 90 | 100 | 100 | 100 | 80 | 15 | Plant response rating, Ragweed [4, 27]: 90; Plant response rating, Waterhemp [5, 27]: 100; Plant response rating, Foxtail, Giant [6, 27]: 80; Corn plant response rating ([10]; Postemergence, 125 g ai/ha, 0 to 100 scale, 0 no effect, 100 complete control): 50; Plant response rating, Corn ([11]; Preemergence, rate head not shown (block before 16 g ai/ha), scale 0 to 100, 100 is complete control): 10; Plant response rating, Corn [11, 20]: 30; Corn plant response rating [11, 21]: 70; Morningglory plant response rating [12, 16]: 70; Morningglory plant response rating [12, 17]: 100; Blackgrass plant response rating [13, 24]: 60; Blackgrass plant response rating [13, 25]: 85; Plant response rating, Blackgrass ([13]; 13 to 15 days): 70; Blackgrass plant response rating [13, 26]: 90; Morningglory plant response rating (0 to 100 scale) [14]: 100; Plant response rating, Ryegrass, Italian [15, 27]: 0; Ryegrass, Italian plant response rating [15, 19]: 5; Plant response rating, Ryegrass, Italian [15, 20]: 35; Ryegrass, Italian plant response rating [15, 21]: 80
